Data: ChEMBL document CHEMBL3044973, “Substituted 9-aryl-1,8-acridinedione derivatives and their effects on potassium channels” (Med Chem Res, 2009)

How the values were obtained:
Conditions in all cases: Aorta
[1] = target: T1, Potassium channel protein (Rattus norvegicus) (UniProt Q6I9B6); assay: Activation of potassium channel in Rattus norvegicus (rat) aortic rings assessed as inhibition of phenylepinephrine-induced contractile response in presence of calcium activated potassium channel inhibitor TEA
T1 sequence (whole entry): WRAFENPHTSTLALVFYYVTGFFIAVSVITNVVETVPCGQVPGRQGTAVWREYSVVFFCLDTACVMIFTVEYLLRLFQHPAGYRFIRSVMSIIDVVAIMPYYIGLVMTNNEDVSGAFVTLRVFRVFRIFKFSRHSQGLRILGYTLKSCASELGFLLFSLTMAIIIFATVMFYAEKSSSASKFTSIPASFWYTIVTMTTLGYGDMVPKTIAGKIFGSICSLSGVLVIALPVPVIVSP

[2] = target: T1, Potassium channel protein (Rattus norvegicus); assay: Activation of potassium channel in Rattus norvegicus (rat) aortic rings assessed as inhibition of phenylepinephrine-induced contractile response in presence of ATP-sensitive potassium channel inhibitor glibenclamide
[3] = target: T1, Potassium channel protein (Rattus norvegicus); assay: Activation of potassium channel in Rattus norvegicus (rat) aortic rings assessed as inhibition of phenylepinephrine-induced contractile response
[4] = target: T1, Potassium channel protein (Rattus norvegicus); assay: Activation of potassium channel in Rattus norvegicus (rat) aortic rings assessed as inhibition of phenylepinephrine-induced contractile response in presence of calcium activated potassium channel inhibitor TEA relative to control
[5] = target: T1, Potassium channel protein (Rattus norvegicus); assay: Activation of potassium channel in Rattus norvegicus (rat) aortic rings assessed as inhibition of phenylepinephrine-induced contractile response in presence of ATP-sensitive potassium channel inhibitor glibenclamide relative to control
[6] = target: T1, Potassium channel protein (Rattus norvegicus); assay: Activation of potassium channel in Rattus norvegicus (rat) aortic rings assessed as inhibition of phenylepinephrine-induced contractile response relative to control

| SMILES | Activity [1] | Activity [2] | Activity [3] | pD2 [3] | Emax [4] [%] | Emax [5] [%] | Emax [6] [%] |
| --- | --- | --- | --- | --- | --- | --- | --- |
| CC1CC(=O)C2=C(C1)NC1=C(C(=O)CC(C)C1)C2c1ccc(F)c(C(F)(F)F)c1 (stereo unspecified) | Dose-dependent effect | Dose-dependent effect | Dose-dependent effect | 4.13 | 15.5 | 22.4 | 55 |
| CC1CC(=O)C2=C(C1)NC1=C(C(=O)CC(C)C1)C2c1c(F)cccc1C(F)(F)F (stereo unspecified) | Dose-dependent effect | Dose-dependent effect | Dose-dependent effect | 4.6 | 21.8 | 23.8 | 59.5 |
| CC1CC(=O)C2=C(C1)NC1=C(C(=O)CC(C)C1)C2c1cccc(C(F)(F)F)c1F (stereo unspecified) | Dose-dependent effect | Dose-dependent effect | Dose-dependent effect | – | – | – | – |
| CC1CC(=O)C2=C(C1)NC1=C(C(=O)CC(C)C1)C2c1ccc(C(F)(F)F)cc1F (stereo unspecified) | Dose-dependent effect | Dose-dependent effect | Dose-dependent effect | 4.12 | 27.7 | 27.2 | 57.4 |
| CC1CC(=O)C2=C(C1)NC1=C(C(=O)CC(C)C1)C2c1cc(C(F)(F)F)ccc1F (stereo unspecified) | Dose-dependent effect | Dose-dependent effect | Dose-dependent effect | – | – | – | – |
| CC1CC(=O)C2=C(C1)NC1=C(C(=O)CC(C)C1)C2c1c(C(F)(F)F)ccc(Cl)c1F (stereo unspecified) | Dose-dependent effect | Dose-dependent effect | Dose-dependent effect | 4.38 | – | – | 52.2 |
| CC1CC(=O)C2=C(C1)NC1=C(C(=O)CC(C)C1)C2c1cccc(C(F)(F)F)c1Cl (stereo unspecified) | Dose-dependent effect | Dose-dependent effect | Dose-dependent effect | 4.23 | 19.8 | 29 | 63 |
| CC1CC(=O)C2=C(C1)NC1=C(C(=O)CC(C)C1)C2c1cc(C(F)(F)F)cc(Cl)c1F (stereo unspecified) | Dose-dependent effect | Dose-dependent effect | Dose-dependent effect | – | – | – | – |
| CC1CC(=O)C2=C(C1)NC1=C(C(=O)CC(C)C1)C2c1ccc(F)cc1C(F)(F)F (stereo unspecified) | Dose-dependent effect | Dose-dependent effect | Dose-dependent effect | – | – | – | – |

Other lines, results leading:

| Activity [1] | Activity [2] | Activity [3] | pD2 [3] | Emax [4] [%] | Emax [5] [%] | Emax [6] [%] | SMILES |
| --- | --- | --- | --- | --- | --- | --- | --- |
| Dose-dependent effect | Dose-dependent effect | Dose-dependent effect | – | – | – | – | CC1CC(=O)C2=C(C1)NC1=C(C(=O)CC(C)C1)C2c1cc(F)cc(C(F)(F)F)c1 (stereo unspecified) |
| Dose-dependent effect | Dose-dependent effect | Dose-dependent effect | 4.71 | 18.5 | 20.8 | 69.5 | CC(N/C(=N\C#N)Nc1ccncc1)C(C)(C)C (stereo unspecified) |
| Dose-dependent effect | Dose-dependent effect | Dose-dependent effect | – | – | – | – | CC1CC(=O)C2=C(C1)NC1=C(C(=O)CC(C)C1)C2c1ccc(Cl)c(C(F)(F)F)c1 (stereo unspecified) |
| Dose-dependent effect | Dose-dependent effect | Dose-dependent effect | – | – | – | – | CC1CC(=O)C2=C(C1)NC1=C(C(=O)CC(C)C1)C2c1cc(C(F)(F)F)ccc1Cl (stereo unspecified) |
